Data reported in patent publication US20240327418A1, “MULTI-TARGET INHIBITOR TARGETING HDAC AND NAD SYNTHESIS AND USE OF MULTI-TARGET INHIBITOR” (OCEAN UNIVERSITY OF CHINA, priority 2021, published 2024).
Where two headings read alike, the source gives them in different places.

Legend:
[1] = system: acute myelogenous leukemia cells MV4-11; assay: GI50 and LC50 by NCI method, MV4-11; type: cell-based; settings: Homo sapiens, 48 hours, Cell Titer-Blue
Protocol: (§1) The median growth inhibitory concentration (GI50) and median lethal concentration (LC50) were determined by NCI method. Leukemia cell strains MV4-11, HL60, PL21, KASUMI-1, MONO-MAC-1 and NB-4 were cultured in an Iscove's Modified Dulbecco Medium (IMDM) containing 10% fetal bovine serum, were inoculated into a 96-well cell culture plate at a density of 10,000 cells/100 μL and cultured overnight. 6 wells were selected as Tz wells, 0.125 mg/mL Cell Titer-Blue dye was added, and the cells were cultured for 4 hours and then the fluorescence intensity at […] (excitation wavelength/emission wavelength) was read. Compounds of different concentrations were added to the remaining wells, and a 100% control group was set. After 48 hours of cultivation, 0.125 mg/mL Cell Titer-Blue dye was added and the fluorescence intensity at […] was read after 4 hours. The fluorescence intensity of the dosing group was represented by Ti, the fluorescence intensity of the 100% control group was represented by C, and the fluorescence intensity before dosing was represented by Tz.
(§2) If Ti≥Tz, the formula [(Ti−Tz)/(C−Tz)]×100 was used.
(§3) If Ti<Tz, the formula [(Ti−Tz)/Tz]×100 was used.
(§4) The GI50 and LC50 values of some compounds on leukemia cell strains MV4-11, HL60, PL21, KASUMI-1, MONO-MAC-1 and NB-4 are shown in FIG. 1, Table 3, FIG. 2, and Table 4.

[2] = system: acute myelogenous leukemia cells HL60; assay: GI50 and LC50 by NCI method, HL60; type: cell-based; settings: for CC50 / GI50: Homo sapiens, HL-60, 48 hours, Cell Titer-Blue
Protocol: as §1, §2, §3, §4

leukemia cell line PL21 = assay: GI50 and LC50 by NCI method, PL21; type: cell-based; settings: PL-21; 48 hours, Cell Titer-Blue
Protocol: as §1, §2, §3, §4

[3] = system: leukemia cell line KASUMI-1; assay: GI50 and LC50 by NCI method, KASUMI-1; type: cell-based; settings: Homo sapiens, 48 hours, Cell Titer-Blue
Protocol: as §1, §2, §3, §4

[4] = system: leukemia cell line MONO-MAC-1; assay: GI50 and LC50 by NCI method, MONO-MAC-1; type: cell-based; settings: 48 hours, Cell Titer-Blue
Protocol: as §1, §2, §3, §4

leukemia cell line NB-4 = assay: GI50 and LC50 by NCI method, NB-4; type: cell-based; settings: 48 hours, Cell Titer-Blue; for GI50: read-out: NB4 GI50; for LC50 (median lethal concentration): read-out: NB4 LC50
Protocol: as §1, §2, §3, §4

cell death = assay: NMN reversal of cell death caused by compounds (FIG. 4); type: cell-based; settings: NMN is nicotinamide mononucleotide
HDAC2 = HDAC2 (Homo sapiens (Human), UniProt Q92769); assay: Inhibitory activity on HDAC2 (fluorescence enzyme assay); settings: read-out: IC50 HDAC2; mean of three independent experiments
HDAC3 = HDAC3 (Homo sapiens (Human), UniProt O15379); assay: Inhibitory activity on HDAC3 (fluorescence enzyme assay); settings: read-out: IC50 HDAC3; mean of three independent experiments
MV4-11 tumor = assay: In vivo anti-leukemia activity, MV4-11 tumor bearing model; settings: MV4-11 tumor bearing nude mice; 4 mg/kg/d, day 23; panobinostat intraperitoneal
[5] = Pharmacokinetic properties in mice; type: in vivo; settings: for F: po 20 mg/kg vs iv 5 mg/kg
HDAC1 = HDAC1 (Homo sapiens (Human), UniProt Q13547); assay: Inhibitory activity on HDAC1 (fluorescence enzyme assay); settings: read-out: IC50 HDAC1; mean of three independent experiments
[6] = po 50 mg/kg, literature (BMC 2007, 21, 184-189); cited from earlier work
NAMPT = NAMPT (Homo sapiens (Human), UniProt P43490); assay: Inhibitory activity on NAMPT; type: biochemical
HCT116 tumor = assay: In vivo anti-colon cancer activity, HCT116 tumor bearing model; set-up: species or system nude mice
[7] = mouse, plasma, po 20 mg/kg single dose
[8] = HCT116 tumor bearing nude mice, LEE17 orally 8 mg/kg/d

Chain of HDAC2 (Q92769 whole entry, species assumed): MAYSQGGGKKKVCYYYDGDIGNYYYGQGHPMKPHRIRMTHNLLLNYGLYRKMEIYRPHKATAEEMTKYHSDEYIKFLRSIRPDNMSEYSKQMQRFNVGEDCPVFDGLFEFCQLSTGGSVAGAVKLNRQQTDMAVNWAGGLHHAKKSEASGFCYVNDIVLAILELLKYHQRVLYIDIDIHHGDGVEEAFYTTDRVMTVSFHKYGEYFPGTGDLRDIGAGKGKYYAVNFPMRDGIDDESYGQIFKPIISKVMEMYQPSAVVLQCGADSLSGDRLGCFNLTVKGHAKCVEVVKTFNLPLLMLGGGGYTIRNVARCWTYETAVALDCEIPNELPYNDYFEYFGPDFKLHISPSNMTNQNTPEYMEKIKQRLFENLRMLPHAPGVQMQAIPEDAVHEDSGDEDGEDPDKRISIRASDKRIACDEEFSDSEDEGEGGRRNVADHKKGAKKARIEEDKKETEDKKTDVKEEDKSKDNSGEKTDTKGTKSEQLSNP
Chain of HDAC3 (O15379 whole entry, species assumed): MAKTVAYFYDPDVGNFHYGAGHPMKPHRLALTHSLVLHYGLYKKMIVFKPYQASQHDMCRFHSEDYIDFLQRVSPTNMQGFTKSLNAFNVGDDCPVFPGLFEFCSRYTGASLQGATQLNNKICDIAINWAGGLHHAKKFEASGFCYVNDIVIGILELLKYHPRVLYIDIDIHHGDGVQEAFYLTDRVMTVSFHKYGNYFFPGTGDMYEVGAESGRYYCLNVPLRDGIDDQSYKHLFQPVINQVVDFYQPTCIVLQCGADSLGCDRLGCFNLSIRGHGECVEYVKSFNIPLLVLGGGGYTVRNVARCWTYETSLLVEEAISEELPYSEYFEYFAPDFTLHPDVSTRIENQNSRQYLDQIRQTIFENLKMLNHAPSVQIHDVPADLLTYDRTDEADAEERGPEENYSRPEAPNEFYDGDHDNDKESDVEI
Chain of HDAC3 (Q9Y618 395-489 partner, species assumed): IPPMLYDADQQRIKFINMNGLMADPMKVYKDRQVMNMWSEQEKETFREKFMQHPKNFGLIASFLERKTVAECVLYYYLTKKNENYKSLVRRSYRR
Chain of HDAC1 (Q13547 whole entry, species assumed): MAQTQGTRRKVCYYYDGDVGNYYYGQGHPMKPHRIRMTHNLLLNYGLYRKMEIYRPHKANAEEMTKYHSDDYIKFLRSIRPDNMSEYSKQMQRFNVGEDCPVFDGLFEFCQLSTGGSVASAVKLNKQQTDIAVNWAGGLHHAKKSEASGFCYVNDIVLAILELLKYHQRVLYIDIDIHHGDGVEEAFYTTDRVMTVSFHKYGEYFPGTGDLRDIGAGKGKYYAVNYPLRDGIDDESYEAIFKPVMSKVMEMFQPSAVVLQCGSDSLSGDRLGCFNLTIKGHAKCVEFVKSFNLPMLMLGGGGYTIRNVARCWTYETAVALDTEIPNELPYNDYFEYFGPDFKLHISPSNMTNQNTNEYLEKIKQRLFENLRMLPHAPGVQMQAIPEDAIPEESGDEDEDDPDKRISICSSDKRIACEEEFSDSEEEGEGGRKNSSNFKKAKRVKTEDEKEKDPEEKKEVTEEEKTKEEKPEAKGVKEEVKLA
Chain of NAMPT (P43490 whole entry, species assumed): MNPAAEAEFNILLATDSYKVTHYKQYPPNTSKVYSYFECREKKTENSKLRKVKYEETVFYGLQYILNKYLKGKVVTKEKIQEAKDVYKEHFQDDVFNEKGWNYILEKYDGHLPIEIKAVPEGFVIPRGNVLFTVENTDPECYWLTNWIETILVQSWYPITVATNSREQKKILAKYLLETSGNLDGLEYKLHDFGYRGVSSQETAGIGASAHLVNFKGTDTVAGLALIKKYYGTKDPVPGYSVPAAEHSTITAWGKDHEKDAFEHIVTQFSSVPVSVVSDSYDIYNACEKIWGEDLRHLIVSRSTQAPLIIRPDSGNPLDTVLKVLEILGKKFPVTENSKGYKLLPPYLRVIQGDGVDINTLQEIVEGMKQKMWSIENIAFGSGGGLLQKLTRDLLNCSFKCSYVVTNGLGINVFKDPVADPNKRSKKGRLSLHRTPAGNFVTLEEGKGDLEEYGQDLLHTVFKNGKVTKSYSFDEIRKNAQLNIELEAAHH

Row | SMILES | GI50 [1] [µM] | LC50 (median lethal concentration) [1] [µM] | LC50 values in p53-null cell strain HL60 (in words) [2] | CC50 [2] [µM] | GI50 [2] [µM] | GI50 (leukemia cell line PL21) [µM] | LC50 (median lethal concentration) (leukemia cell line PL21) [µM] | GI50 [3] [µM] | LC50 [3] [µM] | CC50 [4] [µM] | GI50 [4] [µM] | GI50 (leukemia cell line NB-4) [µM] | LC50 (median lethal concentration) (leukemia cell line NB-4) [µM] | effect of NMN on cell death caused by the compound (cell death) | IC50 (HDAC2) [µM] | IC50 (HDAC3) [µM] | Relative tumor proliferation rate (T/C %) (MV4-11 tumor) [%] | Tumor inhibitory rate (TGI %) (MV4-11 tumor) [%] | AUC(0-t) [5, 7] [ng·h/mL] | IC50 (HDAC1) [µM] | also measured
1 | CCCNNC(=O)c1ccc(CNC(=O)c2cc3cnccc3[nH]2)cc1 [LEE18, N-(4-(2-propylhydrazin-1-carbonyl)benzyl)-1H-pyrrolo[3,2-c]pyridin-2-carboxamide] | 0.0236 | 0.0582 | nanomolar level | 0.649 | 0.0512 | 0.11 | 2.72 | 0.0214 | 0.503 | 8.68 | 0.0657 | 0.0165 | 1.56 | reversal effect | 0.0378 | 0.00071 | – | – | – | – | –
2 | CCCNNC(=O)c1ccc(CNC(=O)c2cc3ccccc3[nH]2)cc1 [LEE15, N-(4-(2-propylhydrazino-1-carbonyl)benzyl)-1H-indole-2-carboxyamide] | 0.0372 | 0.0581 | – | > 10 | 0.0696 | 0.0655 | > 10 | 0.0175 | 8.41 | > 10 | 0.018 | 0.0319 | > 10 | – | 0.0151 | 0.000383 | 22.4 | 81.3 | 128000 | 0.00352 | Tmax [5, 7]: 0.25 h; Cmax ([5]; po 20 mg/kg single dose): 38800 ng/mL; t½ ([5]; po 20 mg/kg single dose): 2.58 h; F [5]: 112%
3 | Cc1[nH]c2ccccc2c1CCNCc1ccc(/C=C/C(=O)NO)cc1 [Panobinostat] | – | – | – | – | – | – | – | – | – | – | – | – | – | – | – | – | 72.9 | 18.3 | – | – | AUClast [6]: 126 ng·h/mL; Cmax [6]: 116 ng/mL; F [6]: 4.62%; t½ [6]: 2.9 h
4 | CCCNNC(=O)c1ccc(CNC(=O)/C=C/c2cccnc2)cc1 [LEE12, (E)-N-(4-(2-propylhydrazino-1-carbonyl)benzyl)-3-(pyridin-3-yl) acrylamide] | 0.0383 | 0.218 | nanomolar level | 0.591 | 0.0421 | 0.259 | 3.82 | 0.0135 | 0.285 | 9.03 | 0.0737 | 0.0228 | 2.3 | reversal effect | 0.141 | 0.00312 | – | – | – | 0.0251 | inhibitory activity against NAMPT (in words) (NAMPT): micromolar level; IC50 (NAMPT; mean of three independent experiments): 6.57 µM
5 | CCCNNC(=O)c1ccc(CNC(=O)c2cc3ccccc3s2)cc1 [LEE17, N-(4-(2-propylhydrazino-1-carbonyl)benzyl)benzo[b]thiophene-2-carboxyamide] | 0.0203 | 0.0571 | – | > 10 | 0.0587 | 0.0743 | > 10 | 0.0253 | 7.33 | > 10 | 0.0332 | 0.0512 | > 10 | – | 0.0169 | 0.000551 | – | – | 27600 | 0.00379 | change in the weight of the nude mice at the end of the experiment (in words) (HCT116 tumor; 8 mg/kg/d): no significant change; Relative tumor proliferation rate (T/C %) (HCT116 tumor; [8]): 14.8%; Tumor inhibitory rate (TGI %) (HCT116 tumor; [8]): 85.5%; Weight of nude mice at the end of the experiment (HCT116 tumor; [8]): 19.04 ± 1.31 g; Tmax [5, 7]: 0.25 h; Cmax ([5]; mouse, plasma, po 20 mg/kg single dose, read-out: Cmax): 9460 ng/mL; half-life ([5]; mouse, plasma, po 20 mg/kg single dose, read-out: t½ (converted)): 4.46 h; F [5]: 64.6%
